Experimental data reported in patent publication US10202658B2, “Methods for determining hypersusceptibility of HIV-1 to non-nucleoside reverse transcriptase inhibitors” (Monogram Biosciences, Inc., priority 2005, dated 2019).

System: HIV-1 clinical isolates grouped by RT mutations
Assay: Pairwise comparison of NNRTI fold change between groups of clinical isolates (Student's T-test, Bonferroni's Multiple Comparison Test)
Assay type: cell-based
Protocol: This example provides methods and compositions for identifying mutations that correlate with hypersusceptibility to a NNRTI. Resistance test vectors were constructed and used as described in Example 1. Resistance test vectors derived from patient samples or clones derived from the resistance test vector pools were tested in a resistance assay to determine accurately and quantitatively the relative EFV, DLV, or NVP resistance or susceptibility compared to the median observed resistance or susceptibility.
To identify mutations associated with NNRTI hypersusceptibility, the following analysis was performed. […] The TAMs referenced in. Table 1 include M41L, D67N, K70R, L210W, T215FY, and K219X, while the NAMs referenced include K65R, T69X, L74IV, V75X, and M184IV. Isolates without NRTI, NNRTI or PI mutations served as a wild type (WT) reference group. Further comparison groups comprised isolates with three TAMS including T215Y (+/−H208Y, +/−V118I) or three TAMS including K70R. Scatter plots and statistical tests (See FIGS. 1-6) were generated using Prism 4.0 (GraphPad, San Diego, Calif.)
In addition, a pairwise comparison between two sets of data was conducted using Bonferroni's Multiple Comparison Test using the Prism 4.0 software. The results of the comparison are presented in Tables 2, 3, and 4, appended to the end of this document. Samples with K65R, K65R+M184V, or 2 TAMs in combination with T215Y had over 40% with EFV FC<0.4.

## CC(C)Nc1cccnc1N1CCN(C(=O)c2cc3cc(NS(C)(=O)=O)ccc3[nH]2)CC1 [DLV, delavirdine]
1 NAM vs 2 NAMs
  Mean Diff. of fold change: 0.2985
1 NAM vs 3 NAMs
  Mean Diff. of fold change: 0.293
1 NAM vs K65R
  Mean Diff. of fold change: 0.3868
1 NAM vs K65R + M184V
  Mean Diff. of fold change: 0.5114
1 NAM vs K70R_3_TAMs
  Mean Diff. of fold change: −0.5755
1 NAM vs M184V
  Mean Diff. of fold change: −0.007762
1 NAM vs T69
  Mean Diff. of fold change: −0.1256
1 NAM vs T215Y_3_TAMs
  Mean Diff. of fold change: 0.6784
1 NAM vs T215Y_3_TAMs_118
  Mean Diff. of fold change: 0.6483
1 NAM vs T215Y_3_TAMs_208
  Mean Diff. of fold change: 0.7831
1 NAM vs T215Y_3_TAMs_no118
  Mean Diff. of fold change: 0.6983
1 NAM vs T215Y_3_TAMs_no208
  Mean Diff. of fold change: 0.6612
2 NAMs vs 3 NAMs
  Mean Diff. of fold change: −0.005498
2 NAMs vs K65R
  Mean Diff. of fold change: 0.08826
2 NAMs vs K65R + M184V
  Mean Diff. of fold change: 0.2128
2 NAMs vs K70R_3_TAMs
  Mean Diff. of fold change: −0.874
2 NAMs vs M184V
  Mean Diff. of fold change: −0.3063
2 NAMs vs T69
  Mean Diff. of fold change: −0.4242
2 NAMs vs T215Y_3_TAMs
  Mean Diff. of fold change: 0.3799
2 NAMs vs T215Y_3_TAMs_118
  Mean Diff. of fold change: 0.3498
2 NAMs vs T215Y_3_TAMs_208
  Mean Diff. of fold change: 0.4845
2 NAMs vs T215Y_3_TAMs_no118
  Mean Diff. of fold change: 0.3997
2 NAMs vs T215Y_3_TAMs_no208
  Mean Diff. of fold change: 0.3627
3 NAMs vs K65R
  Mean Diff. of fold change: 0.09376
3 NAMs vs K65R + M184V
  Mean Diff. of fold change: 0.2183
3 NAMs vs K70R_3_TAMs
  Mean Diff. of fold change: −0.8685
3 NAMs vs M184V
  Mean Diff. of fold change: −0.3008
3 NAMs vs T69
  Mean Diff. of fold change: −0.4187
3 NAMs vs T215Y_3_TAMs
  Mean Diff. of fold change: 0.3854
3 NAMs vs T215Y_3_TAMs_118
  Mean Diff. of fold change: 0.3553
3 NAMs vs T215Y_3_TAMs_208
  Mean Diff. of fold change: 0.49
3 NAMs vs T215Y_3_TAMs_no118
  Mean Diff. of fold change: 0.4052
3 NAMs vs T215Y_3_TAMs_no208
  Mean Diff. of fold change: 0.3682
K65R + M184V vs K70R_3_TAMs
  Mean Diff. of fold change: −1.087
K65R + M184V vs T215Y_3_TAMs
  Mean Diff. of fold change: 0.167
K65R + M184V vs T215Y_3_TAMs_118
  Mean Diff. of fold change: 0.137
K65R + M184V vs T215Y_3_TAMs_208
  Mean Diff. of fold change: 0.2717
K65R + M184V vs T215Y_3_TAMs_no118
  Mean Diff. of fold change: 0.1869
K65R + M184V vs T215Y_3_TAMs_no208
  Mean Diff. of fold change: 0.1499
K65R vs K65R + M184V
  Mean Diff. of fold change: 0.1246
K65R vs K70R_3_TAMs
  Mean Diff. of fold change: −0.9623
K65R vs M184V
  Mean Diff. of fold change: −0.3946
K65R vs T69
  Mean Diff. of fold change: −0.5124
K65R vs T215Y_3_TAMs
  Mean Diff. of fold change: 0.2916
K65R vs T215Y_3_TAMs_118
  Mean Diff. of fold change: 0.2615
K65R vs T215Y_3_TAMs_208
  Mean Diff. of fold change: 0.3963
K65R vs T215Y_3_TAMs_no118
  Mean Diff. of fold change: 0.3115
K65R vs T215Y_3_TAMs_no208
  Mean Diff. of fold change: 0.2744
K70R_3_TAMs vs T215Y_3_TAMs_118
  Mean Diff. of fold change: 1.224
K70R_3_TAMs vs T215Y_3_TAMs_no118
  Mean Diff. of fold change: 1.274
M184V vs K65R + M184V
  Mean Diff. of fold change: 0.5191
M184V vs K70R_3_TAMs
  Mean Diff. of fold change: −0.5677
M184V vs T69
  Mean Diff. of fold change: −0.1179
M184V vs T215Y_3_TAMs
  Mean Diff. of fold change: 0.6862
M184V vs T215Y_3_TAMs_118
  Mean Diff. of fold change: 0.6561
M184V vs T215Y_3_TAMs_208
  Mean Diff. of fold change: 0.7908
M184V vs T215Y_3_TAMs_no118
  Mean Diff. of fold change: 0.706
M184V vs T215Y_3_TAMs_no208
  Mean Diff. of fold change: 0.669
T69 vs K65R + M184V
  Mean Diff. of fold change: 0.637
T69 vs K70R_3_TAMs
  Mean Diff. of fold change: −0.4499
T69 vs T215Y_3_TAMs
  Mean Diff. of fold change: 0.8041
T69 vs T215Y_3_TAMs_118
  Mean Diff. of fold change: 0.774
T69 vs T215Y_3_TAMs_208
  Mean Diff. of fold change: 0.9087
T69 vs T215Y_3_TAMs_no118
  Mean Diff. of fold change: 0.8239
T69 vs T215Y_3_TAMs_no208
  Mean Diff. of fold change: 0.7869
T215Y_3_TAMs vs K70R_3_TAMs
  Mean Diff. of fold change: −1.254
T215Y_3_TAMs vs T215Y_3_TAMs_118
  Mean Diff. of fold change: −0.03008
T215Y_3_TAMs vs T215Y_3_TAMs_208
  Mean Diff. of fold change: 0.1046
T215Y_3_TAMs vs T215Y_3_TAMs_no118
  Mean Diff. of fold change: 0.01984
T215Y_3_TAMs vs T215Y_3_TAMs_no208
  Mean Diff. of fold change: −0.01718
T215Y_3_TAMs_208 vs K70R_3_TAMs
  Mean Diff. of fold change: −1.359
T215Y_3_TAMs_208 vs T215Y_3_TAMs_118
  Mean Diff. of fold change: −0.1347
T215Y_3_TAMs_208 vs T215Y_3_TAMs_no118
  Mean Diff. of fold change: −0.0848
T215Y_3_TAMs_208 vs T215Y_3_TAMs_no208
  Mean Diff. of fold change: −0.1218
T215Y_3_TAMs_no118 vs T215Y_3_TAMs_118
  Mean Diff. of fold change: −0.04992
T215Y_3_TAMs_no208 vs K70R_3_TAMs
  Mean Diff. of fold change: −1.237
T215Y_3_TAMs_no208 vs T215Y_3_TAMs_118
  Mean Diff. of fold change: −0.0129
T215Y_3_TAMs_no208 vs T215Y_3_TAMs_no118
  Mean Diff. of fold change: 0.03702
All groups containing NAMs or the combination of TAMs shown in Table 1, p<0.0001, Student's T-test
  mean fold change (FC) compared to the WT population: significantly lower
Wt vs 1 NAM
  Mean Diff. of fold change: 0.3819
Wt vs 2 NAMs
  Mean Diff. of fold change: 0.6804
Wt vs 3 NAMs
  Mean Diff. of fold change: 0.6749
Wt vs K65R
  Mean Diff. of fold change: 0.7687
Wt vs K65R + M184V
  Mean Diff. of fold change: 0.8932
Wt vs K70R_3_TAMs
  Mean Diff. of fold change: −0.1936
Wt vs M184V
  Mean Diff. of fold change: 0.3741
Wt vs T69
  Mean Diff. of fold change: 0.2562
Wt vs T215Y_3_TAMs
  Mean Diff. of fold change: 1.06
Wt vs T215Y_3_TAMs_118
  Mean Diff. of fold change: 1.03
Wt vs T215Y_3_TAMs_208
  Mean Diff. of fold change: 1.165
Wt vs T215Y_3_TAMs_no118
  Mean Diff. of fold change: 1.08
Wt vs T215Y_3_TAMs_no208
  Mean Diff. of fold change: 1.043
